For assay [1], the system named is human psoriasis skin engrafted onto severe combined immunodeficient (SCID) mice. The assay is described as follows: SCID mouse, human skin transplant model of psoriasis. The assay is classed as in vivo. The text has this:
Background: Human psoriasis skin engrafted onto severe combined immunodeficient (SCID) mice maintains its abnormal histologic characteristics in the absence of any treatment. Treatment of this SCID mouse, human skin transplant model of psoriasis with anti-psoriatic drugs will improve the histologic phenotype of the transplanted psoriatic skin. Thus, the SCID mouse with transplanted human psoriatic skin represents a useful model of psoriasis and can be used to test the therapeutic effects of antipsoriatic drugs (as described in the following references: 1) Nickoloff B J, Kunkel S L, Burdick […]. Severe combined immunodeficiency mouse and human psoriatic skin chimeras. Validation of a new animal model. Am J Pathol. 1995; 146:580-588. […] Archives of Dermatology 136:609-616, 2000). Methods: Keratome pieces of lesional psoriasis skin were transplanted onto immunodeficient mice (such as CB17 strain) as previously described (Nickoloff B J, Kunkel S L, Burdick […]. Am J Pathol. 1995; 146:580-588. Ellis […], Fisher […], Benson S C, Kurtz T W. Archives of Dermatology. 136:609-616, 2000). The transplanted tissue was allowed to heal for four weeks after which six animals were treated once daily for 4-8 weeks by topical application of BP107 to the psoriatic skin in concentrations sufficient to exert an antipsoriatic effect (concentrations ranging from 0.1 micromolar to 10 millimolar in appropriate amounts of vehicle such as DMSO, propylene glycol, or other vehicles familiar to those skilled in the art). At the end of the treatment period, the animals were sacrificed, tissue pieces were fixed in 10% buffered formalin, embedded in paraffin, sectioned, stained with hematoxylin and eosin, and evaluated histologically using techniques familiar to those skilled in the art. Animals topically treated with the corresponding vehicle without any BP107 were used as controls.

For another assay, the target named is T1, PPARalpha (Homo sapiens, UniProt Q07869).
T1 construct: uses chimeric receptors where the PPAR LBD is fused to the DBD of the yeast transcription factor GAL4; expressed in transfected cells
T1 sequence (Q07869 239-466 limits assumed): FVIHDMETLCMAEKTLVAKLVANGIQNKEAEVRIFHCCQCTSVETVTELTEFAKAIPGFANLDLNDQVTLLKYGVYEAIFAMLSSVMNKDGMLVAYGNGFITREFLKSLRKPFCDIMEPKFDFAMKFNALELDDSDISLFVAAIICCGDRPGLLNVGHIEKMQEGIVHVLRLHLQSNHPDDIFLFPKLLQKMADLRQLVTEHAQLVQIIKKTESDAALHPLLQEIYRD
The assay is described as follows: cell based transactivation assay, PPARalpha. As to conditions: activation, transactivation assay in vitro; read-out: EC50 for PPAR isoforms: PPARalpha. The procedure: (§1) The binding of agonist ligands to the receptor results in changes in the expression level of mRNAs encoded by PPAR target genes. This process, “transactivation”, is determined by cell-based assays which monitor this functional activity. Transactivation assays use cells that have been transfected with a vector expressing the receptor as well as a second vector containing a DNA direct repeat (DR-1) response element and a reporter gene, which encodes an enzyme such as chloramphenicol acetyltransferase, secreted placental alkaline phosphatase, or firefly luciferase. […]
(§2) The binding of agonist ligands to a nuclear receptor results in transactivation, i.e., changes in the expression level of mRNAs encoded by PPAR target genes. […] Activation of the receptor by agonist ligands leads to induction of reporter enzyme expression, which can be conveniently assayed using standard colorimetric or photometric plate readers. […]

For a further assay, the target named is T2, PPARdelta (Homo sapiens, UniProt Q03181).
T2 construct: uses chimeric receptors where the PPAR LBD is fused to the DBD of the yeast transcription factor GAL4; expressed in transfected cells
T2 sequence (Q03181 211-439 limits assumed): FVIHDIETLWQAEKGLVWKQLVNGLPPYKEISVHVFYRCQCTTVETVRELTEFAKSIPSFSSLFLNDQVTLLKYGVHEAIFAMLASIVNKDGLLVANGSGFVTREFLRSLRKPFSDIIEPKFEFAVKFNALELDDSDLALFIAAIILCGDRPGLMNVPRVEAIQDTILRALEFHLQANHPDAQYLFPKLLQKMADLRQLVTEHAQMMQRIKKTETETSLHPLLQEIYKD
Put plainly: cell based transactivation assay, PPARdelta. The conditions noted are these: activation, transactivation assay in vitro; read-out: EC50 for PPAR isoforms: PPARdelta. The procedure: as §1, §2

The target in another assay is T3, PPARgamma (Homo sapiens, UniProt P37231).
T3 construct: uses chimeric receptors where the PPAR LBD is fused to the DBD of the yeast transcription factor GAL4; expressed in transfected cells
T3 sequence (P37231 238-503 limits assumed): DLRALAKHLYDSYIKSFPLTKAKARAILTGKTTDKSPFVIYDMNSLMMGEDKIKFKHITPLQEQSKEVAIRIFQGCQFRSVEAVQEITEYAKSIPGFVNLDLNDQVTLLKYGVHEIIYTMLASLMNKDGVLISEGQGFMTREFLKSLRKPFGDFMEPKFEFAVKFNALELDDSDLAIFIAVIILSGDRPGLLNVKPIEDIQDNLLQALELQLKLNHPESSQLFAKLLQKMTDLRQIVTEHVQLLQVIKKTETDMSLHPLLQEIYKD
Put plainly: cell based transactivation assay, PPARgamma. The conditions noted are these: activation, transactivation assay in vitro; read-out: EC50 for PPAR isoforms: PPARgamma. The protocol:
as §1, §2

Setting [2] is: topical, once daily for 4-8 weeks, histology.

For the molecule `CN(CCOc1ccc(CC2SC(=O)NC2=O)cc1)C(=O)CCCCC1C2CC3CC(C2)CC1C3` (stereo not drawn) [BP 107, 5-Adamantan-2-yl-pentanoic acid {2-[4-(2,4-dioxo-thiazolidin-5-ylmethyl)-phenoxy]-ethyl}-methyl-amide], the “antipsoriatic effect compared to animals treated with troglitazone or rosiglitazone” value in assay [1] (topical BP107 vs weaker PPAR gamma activators) is “much better”. For the same molecule, the granular layer result in assay [1] (setting [2]) was “present in much of the epidermis”. In assay [1] (setting [2]), the inflammatory response result was “reduced”. Also, the “pattern of epidermal differentiation” value in assay [1] (setting [2]) was “more normal pattern”. Also, in assay [1] (topical, once daily for 4-8 weeks, histology, vs vehicle controls), the overall skin thickness entry is reported as “reduced”. Further, the “anti-psoriatic effect compared to control animals” value in assay [1] (topical, once daily for 4-8 weeks, controls treated with vehicle) is on record as “clearly evident”. Further, the EC50 was over 10 µM on PPARalpha, over 10 µM at PPARdelta and under 0.001 µM on PPARgamma.

The record behind these values is patent US7339065B2, “Design and synthesis of optimized ligands for PPAR” (Bethesda Pharmaceuticals, Inc., priority 2003, dated 2008).
